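At the GI50, growth is halved. TGI: total growth inhibition.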
Assays:
Experiment in all cases: DTP human tumour cell line panel, 384-well format
LOX IMVI melanoma = tested on: LOX IMVI melanoma
K-562 leukemia = tested on: K-562 leukemia
RPMI-8226 leukemia = tested on: RPMI-8226 leukemia
HT29 colon = tested on: HT29 colon
SK-MEL-5 melanoma = tested on: SK-MEL-5 melanoma
IGROV1 ovarian = tested on: IGROV1 ovarian
HOP-62 NSCLC = tested on: HOP-62 NSCLC
SNB-75 CNS = tested on: SNB-75 CNS
UO-31 renal = tested on: UO-31 renal
NCI-H522 lung = tested on: NCI-H522 lung
DU-145 prostate = tested on: DU-145 prostate
OVCAR-5 ovarian = tested on: OVCAR-5 ovarian
SR leukemia = tested on: SR leukemia
BT-549 breast = tested on: BT-549 breast
SN12C renal = tested on: SN12C renal
MDA-MB-231 breast = tested on: MDA-MB-231 breast
SF-268 CNS = tested on: SF-268 CNS
786-0 renal = tested on: 786-0 renal
U251 glioblastoma = tested on: U251 glioblastoma
UACC-257 melanoma = tested on: UACC-257 melanoma
NCI-H460 NSCLC = tested on: NCI-H460 NSCLC
NCI/ADR-RES ovarian = tested on: NCI/ADR-RES ovarian
HOP-92 NSCLC = tested on: HOP-92 NSCLC
SF-295 CNS = tested on: SF-295 CNS
NCI-H226 lung = tested on: NCI-H226 lung
SW-620 colon = tested on: SW-620 colon
OVCAR-3 ovarian = tested on: OVCAR-3 ovarian
KM12 colon = tested on: KM12 colon
EKVX NSCLC = tested on: EKVX NSCLC
MDA-MB-468 breast = tested on: MDA-MB-468 breast
M14 melanoma = tested on: M14 melanoma
HCT-15 colon = tested on: HCT-15 colon
MALME-3M melanoma = tested on: MALME-3M melanoma
ACHN renal = tested on: ACHN renal
HS 578T breast = tested on: HS 578T breast
SK-MEL-28 melanoma = tested on: SK-MEL-28 melanoma
SK-OV-3 ovarian = tested on: SK-OV-3 ovarian
COLO 205 colon = tested on: COLO 205 colon
RXF 393 renal = tested on: RXF 393 renal
SF-539 CNS = tested on: SF-539 CNS
PC-3 prostate = tested on: PC-3 prostate
SNB-19 CNS = tested on: SNB-19 CNS
NCI-H23 lung = tested on: NCI-H23 lung
MDA-MB-435 melanoma = tested on: MDA-MB-435 melanoma
NCI-H322M lung = tested on: NCI-H322M lung
T-47D breast = tested on: T-47D breast
HCT-116 colon = tested on: HCT-116 colon
A498 renal = tested on: A498 renal
OVCAR-4 ovarian = tested on: OVCAR-4 ovarian
MCF7 breast = tested on: MCF7 breast
MOLT-4 leukemia = tested on: MOLT-4 leukemia
TK-10 renal = tested on: TK-10 renal
OVCAR-8 ovarian = tested on: OVCAR-8 ovarian
CAKI-1 renal = tested on: CAKI-1 renal
CCRF-CEM leukemia = tested on: CCRF-CEM leukemia
A549 NSCLC = tested on: A549 NSCLC

C[C@H]1CNC(=O)c2cnn3ccc(nc23)N[C@H](C)c2cc(F)ccc2O1
GI50 (LOX IMVI melanoma): 0.428 µM | TGI (LOX IMVI melanoma): 1.45 µM | GI50 (K-562 leukemia): 0.451 µM | TGI (K-562 leukemia): 1.85 µM | GI50 (RPMI-8226 leukemia): 1.61 µM | TGI (RPMI-8226 leukemia): 3.76 µM | GI50 (HT29 colon): 0.776 µM | TGI (HT29 colon): 13.4 µM | GI50 (SK-MEL-5 melanoma): 6.62 µM | TGI (SK-MEL-5 melanoma): 20.5 µM | GI50 (IGROV1 ovarian): 0.229 µM | TGI (IGROV1 ovarian): 0.911 µM | GI50 (HOP-62 NSCLC): 1.12 µM | TGI (HOP-62 NSCLC): 2.85 µM | GI50 (SNB-75 CNS): 0.209 µM | TGI (SNB-75 CNS): 0.816 µM | GI50 (UO-31 renal): 1.36 µM | TGI (UO-31 renal): 2.8 µM | GI50 (NCI-H522 lung): 0.463 µM | TGI (NCI-H522 lung): 2.28 µM | GI50 (DU-145 prostate): 1.43 µM | TGI (DU-145 prostate): 5.04 µM | GI50 (OVCAR-5 ovarian): 0.527 µM | TGI (OVCAR-5 ovarian): 2.91 µM | GI50 (SR leukemia): 0.0372 µM | TGI (SR leukemia): 0.116 µM | GI50 (BT-549 breast): 1.07 µM | TGI (BT-549 breast): 2.3 µM | GI50 (SN12C renal): 0.664 µM | TGI (SN12C renal): 2.26 µM | GI50 (MDA-MB-231 breast): 0.433 µM | TGI (MDA-MB-231 breast): 2.46 µM | GI50 (SF-268 CNS): 0.374 µM | TGI (SF-268 CNS): 1.55 µM | GI50 ([…]-0 renal): 1.29 µM | TGI (786-0 renal): 2.66 µM | GI50 (U251 glioblastoma): 2.29 µM | TGI (U251 glioblastoma): 11.4 µM | GI50 (UACC-257 melanoma): 12.2 µM | TGI (UACC-257 melanoma): 37.4 µM | GI50 (NCI-H460 NSCLC): 0.391 µM | TGI (NCI-H460 NSCLC): 1.69 µM | GI50 (NCI/ADR-RES ovarian): 10.6 µM | TGI (NCI/ADR-RES ovarian): 22.6 µM | GI50 (HOP-92 NSCLC): 0.516 µM | TGI (HOP-92 NSCLC): 1.98 µM | GI50 (SF-295 CNS): 0.243 µM | TGI (SF-295 CNS): 1.77 µM | GI50 (NCI-H226 lung): 0.525 µM | TGI (NCI-H226 lung): 2 µM | GI50 (SW-620 colon): 0.444 µM | TGI (SW-620 colon): 2.85 µM | GI50 (OVCAR-3 ovarian): 0.414 µM | TGI (OVCAR-3 ovarian): 2.03 µM | TGI (KM12 colon): 10.1 µM | GI50 (EKVX NSCLC): 0.469 µM | TGI (EKVX NSCLC): 3.82 µM | GI50 (MDA-MB-468 breast): 0.629 µM | TGI (MDA-MB-468 breast): 2.01 µM | GI50 (M14 melanoma): 31.7 µM | TGI (M14 melanoma): > 100 µM | GI50 (HCT-15 colon): 1.36 µM | TGI (HCT-15 colon): 4.6 µM | GI50 (MALME-3M melanoma): 4.21 µM | TGI (MALME-3M melanoma): 30 µM | GI50 (ACHN renal): 0.511 µM | TGI (ACHN renal): 2.65 µM | GI50 (HS 578T breast): 0.249 µM | TGI (HS 578T breast): 1.25 µM | GI50 (SK-MEL-28 melanoma): 17.1 µM | TGI (SK-MEL-28 melanoma): 77.1 µM | GI50 (SK-OV-3 ovarian): 0.522 µM | TGI (SK-OV-3 ovarian): 2.93 µM | GI50 (COLO 205 colon): 1.43 µM | TGI (COLO 205 colon): 2.93 µM | GI50 (RXF 393 renal): 0.187 µM | TGI (RXF 393 renal): 0.498 µM | GI50 (SF-539 CNS): 1.02 µM | TGI (SF-539 CNS): 2.23 µM | GI50 (PC-3 prostate): 0.668 µM | TGI (PC-3 prostate): 4.01 µM | GI50 (SNB-19 CNS): 1.83 µM | TGI (SNB-19 CNS): 7.86 µM | GI50 (NCI-H23 lung): 0.521 µM | TGI (NCI-H23 lung): 6.75 µM | GI50 (MDA-MB-435 melanoma): 16.1 µM | TGI (MDA-MB-435 melanoma): 49.8 µM | GI50 (NCI-H322M lung): 1.14 µM | TGI (NCI-H322M lung): 6.01 µM | GI50 (T-47D breast): 1.48 µM | TGI (T-47D breast): 15.8 µM | GI50 (HCT-116 colon): 0.477 µM | TGI (HCT-116 colon): 11.1 µM | GI50 (A498 renal): 0.779 µM | TGI (A498 renal): 2.1 µM | GI50 (OVCAR-4 ovarian): 0.687 µM | TGI (OVCAR-4 ovarian): 7.35 µM | GI50 (MCF7 breast): 0.429 µM | TGI (MCF7 breast): 15.2 µM | GI50 (MOLT-4 leukemia): 0.18 µM | TGI (MOLT-4 leukemia): 0.342 µM | GI50 (TK-10 renal): 0.635 µM | TGI (TK-10 renal): 2.1 µM | GI50 (OVCAR-8 ovarian): 1.65 µM | TGI (OVCAR-8 ovarian): 4.08 µM | GI50 (CAKI-1 renal): 0.829 µM | TGI (CAKI-1 renal): 2.09 µM | GI50 (CCRF-CEM leukemia): 0.189 µM | TGI (CCRF-CEM leukemia): 0.345 µM | GI50 (A549 NSCLC): 0.439 µM | TGI (A549 NSCLC): 10.8 µM

Source: PubChem BioAssay (NCI)
